Columns and labels:
[1] = tested on: VM precursor cultures; test: Immuno-cytochemistry and TH+ cell counting in VM precursor cultures; assay type: cell-based, rat
Method: Briefly, ventral mesencephalic tissues were dissected from E14.5 Sprague-Dawley (SD) rats, and then dissociated enzymatically (0.1% trypsin) and mechanically. Cells were seeded into 24-well (1×10^5/cm^2) culture plates pre-coated with 20 μg/mL poly-D-lysine (Sigma-Aldrich), and were maintained in 0.5 mL/well of minimum essential medium (MEM) supplemented with 10% fetal bovine serum (FBS), 10% horse serum (HS), 1 g/L glucose, 2 mM L-glutamine, 1 mM sodium pyruvate, 100 μM nonessential amino acids, 100 U/mL penicillin, and 100 μg/mL streptomycin (all purchased from Invitrogen). Cultures were maintained at 37° C. in a humidified atmosphere of 5% CO2 and 95% air. For DA neuron differentiation, VM precursor cultures, four hours after seeding, were switched to Dulbecco's Modified Eagle's Medium (DMEM)/Ham's F12 (1:1) containing N2 supplement (Invitrogen, Carlsbad, Calif.), penicillin and streptomycin. Immediately following the switch to DMEM/F12 medium, VM precursor cells were treated with various concentration of rat UCN (from Sigma-Aldrich, St. Louis, Mo.) for the indicated periods. For neutralization of endogenous UCN bioactivity, anti-UCN antibody (15 μg/mL) (Santa Cruz Biotechnology, Santa Cruz, Calif.) was added to the VM precursor cultures.
For immuno-cytochemistry, cells were fixed with 4% paraformaldehyde followed by blocking with PBS containing 0.4% Triton X-100, 3% normal goat serum and 2% bovine serum albumin (BSA) for 1 h at room temperature. After blocking, cells were incubated overnight at room temperature with primary antibodies. Primary antibodies were rabbit anti-UCN (1:200), mouse anti-TH (1:2000) (both from Sigma-Aldrich), goat anti-CRHR1 (1:100), rabbit anti-CRHR2 (1:250), rat anti-dopamine transporter (DAT, 1:200), chicken anti-MAP2 (1:5000) (all from Abcam, Cambridge, Mass.), rabbit anti-Nurr1 (1:100, Santa Cruz Biotechnology), mouse anti-Nurr1 (1:100, R&D Systems, Minneapolis, Minn.), rabbit anti-TH (1:1000), mouse anti-NeuN (1:200) (both from Chemicon, Temecula, Calif.), rabbit anti-acetyl-histone H3 (1:1000, Upstate Biotechnology, Lake Placid, N.Y.), rabbit anti-Foxa2 (1:500, Cell Signaling Technology), and rabbit anti-Pitx3 (1:100, Invitrogen).
For detection of dopaminergic neurons, the bound anti-TH antibody was visualized by incubation with an appropriate biotinylated secondary antibody followed by the Vectastain avidin-biotin-peroxidase (ABC) reagents (Vector Laboratories, Burlingame, Calif.) and color development with 3,3′-diaminobenzidine. The number of TH-positive neurons were counted in the entire surface area of a culture well or coverslip. For fluorescent double-labeling experiments, cells were incubated for 1 h at room temperature with rhodamine-conjugated donkey anti-mouse IgG (1:250), FITC-conjugated goat anti-rabbit IgG (1:250) or FITC-conjugated donkey anti-goat IgG (1:200) secondary antibodies (all from Jackson Immuno Research, West Grove, Pa.). Samples were counter-stained with Hoechst 33342 (5 μg/mL, Sigma-Aldrich) or DAPI (1 μg/mL), and mounted with 50% glycerol in PBS. Microscopic observations were done with a Zeiss Axiovert 200 M fluorescent microscope or a Zeiss LSM 510 META confocal imaging system (Carl Zeiss, Oberkochen, Germany). Immuno-reactive or Hoechst 33342-stained cells were counted in at least 10 random areas of each culture coverslip at a magnification of 100×.

[2] = tested on: TH promoter in SH-SY5Y cells; test: TH promoter assay (pTH6.0-GL3 luciferase) in SH-SY5Y cells; assay type: cell-based, human; details: 24 hours; for elicited TH promoter activity on forced MeCP2 or CoREST expression / elicited TH promoter activity on co-transfection with HDAC1: 1 μM UCN or 1.25 mM SB; for elicited TH promoter activity on co-transfection with HDAC1: pK7-HDAC1 co-transfection
Description: (§1) The luciferase reporter vector pTH6.0-GL3 constructed by engineering the 6.0 kb upstream sequences of the rat TH (TH6.0) gene into pGL3 was kindly provided by Dr. Kwang-Soo Kim (Harvard Medical School, Belmont, Mass.). Vector expressing Nurr1 (mouse) was constructed by inserting the respective cDNA into pAAV-MCS vector (pAAV-Nurr1), in which the cloned gene is designed to be expressed under the control of the cytomegalovirus (CMV) immediate-early promoter. pTH6.0-GL3 alone or combined with pAAV-Nurr1 were transfected into a human neuro-blastoma SH-SY5Y cell line or cortical NPCs, respectively, using Lipofectamine 2000 (Invitrogen) according to the protocol of the manufacturer. For determine the effect of MeCP2-CoREST-HDAC1 repressor complex on TH promoter activity, the SH-SY5Y cells were double transfected with pTH6.0-GL3 and pCMV6-Entry-Mecp2 (Flag-tagged MeCP2)/or pCMV6-Entry-Rcor1 (Flag-tagged CoREST) (both from OriGene Technologies, Rockville, Md.)/or pK7-HDAC1-GFP (Addgene). At 24 h after transfection, cells were treated with 1 μM UCN or 1.25 mM SB for another 24 h. Luciferase activity of cell lysates was determined luminometrically by the luciferase assay system (Promega, Madison, Wis.) as specified by the manufacturer. Luciferase activity was normalized to the protein content of the extracts. Relative luciferase activity was determined to reflect promoter activity of TH, expressed as the fold increase relative to the activity of control or untreated mock control.

[3] = tested on: TH promoter in Nurr1-transfected cortical NPCs; test: TH promoter assay (pAAV-Nurr1 and pTH6.0-GL3) in cortical NPCs; assay type: cell-based, rat; details: 24 hours
Description: as §1, with “At 24 h after transfection, cells were treated with 1 μM UCN or 1.25 mM SB for another 24 h.” left out

| Compound | number of TH+ neurons over time ([1]; 1 μM UCN as early as 1 day in vitro vs control medium at 4 days in vitro) | Nurr1-immuno-reactive intensity ([1]; 1 μM UCN, 2 to 3 days) | level of Foxa2 and Pitx3 in Nurr1+ cells ([1]; 1 μM UCN, 2 to 3 days) | TH+ cells co-expressing NeuN, MAP2 and DAT ([1]; 1 μM UCN, 4 days, double immuno-staining) | number of Nurr1+ cells ([1]; UCN treated cultures (control 4.91%±0.54%)) | differentiation of Nurr1+/TH- precursors into Nurr1+/TH+ DA neurons ([1]; UCN vs control) | numbers of TH+ cells ([1]; increasing doses of UCN, 3 days) | elicited TH promoter activity on forced MeCP2 or CoREST expression [2] | TH promoter activity (relative luciferase activity) ([2]; 1 μM UCN) | elicited TH promoter activity on co-transfection with HDAC1 [2] | TH promoter activity (relative luciferase activity) ([3]; 1 μM UCN) | % TH+ cells out of total Nurr1+ cells (conversion of Nurr1+ precursors) ([1]; 1.25 mM SB, 3 days) | cells with TH staining ([1]; 1.25 mM SB, 3 days) | TH promoter activity ([2]; 1.25 mM SB) | TH promoter activity ([3]; 0.5 mM SB) |
| --- | --- | --- | --- | --- | --- | --- | --- | --- | --- | --- | --- | --- | --- | --- | --- |
| Urocortin [UCN] | clearly higher than that of control medium | increased | increased level | all the TH^+ cells | 4.68%±0.4% | more Nurr1^+ cells develop concomitant TH^+ expression | dose-dependent increase | attenuation | activation of the TH promoter | significantly attenuated | activation of the TH promoter |  |  |  |  |
| CCCC(=O)[O-].[Na+] [SB, sodium butyrate, reference compound] |  |  |  |  |  |  |  | attenuation |  | significantly attenuated |  | increased DA cell numbers was through conversion of Nurr1^+ precursors into DA neurons | increase in cells with TH staining | increase TH promoter activity | increase TH promoter activity |
